Results published in article PMC4381587, “A novel PI3K inhibitor PIK-C98 displays potent preclinical activity against multiple myeloma” (Oncotarget, 2014).

Assays:
[1] = target: recombinant human PI3K isoform α (Homo sapiens, UniProt P42336); assay: Kinase activity in cell-free assay (HotSpot), PI3Kα; format: biochemical; details: read-out: IC50 against PI3K α isoform
Method: (§1) To confirm this hypothesis, the inhibitory potency of C98 on PI3K enzymes was measured in a cell-free system with individual recombinant human PI3K isoforms. […] To further evaluate its specificity on PI3K, the effects of C98 on other associated kinases AKT, PDK1, and mTOR were also measured in the enzymatic systems. […] Therefore, C98 preferred to inhibit PI3K activity.
(§2) Figure 1 C98 inhibits PI3K activity (A) Chemical structure of C98. (B) OPM2 cells were starved overnight and then treated with six compounds identified from the virtual screening for 2 hr, followed by IGF-1 stimulation for 15 min. Cell lysates were prepared for AKT expression and phosphorylation analyses. The known PI3K inhibitor S14161 was used as a positive control. (C) OPM2 cells were starved overnight, then treated with C98 at indicated concentration (25, 50 and 100 μM) or S14161 (100 μM) for 2 hr, followed by IGF-1 (100 ng/mL) stimulation for 15 min Cell lysates were prepared for AKT expression and phosphorylation analyses. […] Activity of each kinase was determined with HotSpot technology as described in the Methods section “Kinase activity in cell-free assay”. […]

[2] = target: recombinant human PI3K isoform γ (Homo sapiens, UniProt P48736); assay: Kinase activity in cell-free assay (HotSpot), PI3Kγ; format: biochemical; details: read-out: IC50 against PI3K γ isoform
Method: as §1, §2

[3] = system: T1, PDK1; assay: Kinase activity in cell-free assay, PDK1; format: biochemical; details: enzymatic system, even at a concentration of 300 μM
T1 construct: purchased Reaction Biology Corp., Malvern, PA, USA
Method: as §1
Kinase activity in the presence of C98 was performed by using the HotSpot technology (Reaction Biology Corp., Malvern, PA, USA) as described previously.

[4] = system: AKT phosphorylation in OPM2 cells; assay: Immunoblotting of AKT phosphorylation in starved, IGF-1-stimulated OPM2 cells; format: cell-based, human; details: OPM2 starved overnight, C98 25-100 μM, 0.5-2 hr, then IGF-1 100 ng/mL 15 min
Method: as §1, §2

[5] = system: AKT phosphorylation in LP1 and JJN3 cells; assay: Immunoblotting of AKT phosphorylation in starved, IGF-1-stimulated LP1 and JJN3 cells; format: cell-based; details: 2 hr, then IGF-1 100 ng/mL 15 min
Method: (§3) (B) LP1 and JJN3 cells were starved overnight, then treated with C98 or S14161 for 2 hr, followed by IGF-1 (100 ng/mL) for 15 min. Cells were then prepared for the analysis of the expression of p-AKT, t-AKT, p-IGF-1R, and IGF-1R by immunoblotting. (C) OPM2 and JJN3 cells were treated with increasing concentrations of C98 for 24 hr before being applied to immunoblotting against p-ERK, t-ERK, p-P38, t-P38, p-Src, t-Src, p-STAT3, or t-STAT3. GAPDH and β-actin were used as loading controls.
(§4) To find out whether C98 also interfered with other signaling pathways, we first checked the receptor tyrosine kinase IGF-1R, which mediates PI3K activation in MM cells in the presence of IGF-1. Starved MM cells LP1 and JJN3 were incubated with C98 followed by IGF-1 stimulation. […] Moreover, we also measured the expression of PTEN, a negative regulator of PI3K signaling, in MM cells after C98 treatment.
(§5) The immunoblotting assays were performed as described previously. IRDye 680 goat anti-mouse and IRDye 800CW goat anti-rabbit antibodies were from Odyssey (San Ramon, CA, USA).

[6] = system: IGF-1R; assay: Immunoblotting of IGF-1R phosphorylation in starved, IGF-1-stimulated LP1 and JJN3 cells; format: cell-based; details: 100 μM, 2 hr, then IGF-1
Method: as §3, §4, §5

[7] = system: PTEN; assay: Immunoblotting of PTEN protein level in MM cells; format: cell-based; details: MM cells after C98 treatment
Method: as §4, §5

[8] = system: ERK; assay: Immunoblotting of ERK phosphorylation in OPM2 and JJN3 cells; format: cell-based, human; details: OPM2 and JJN3, 24 hr
Method: as §3
(§6) To further clarify the effects of C98 on other signaling pathways associated with PI3K signaling, we evaluated ERK and p38, both of which mediate extracellular signaling similar to PI3K. […] We also checked the phosphorylation status of STAT3, a signal transducer and activator of transcription. […] Therefore, C98 had no effects on these kinases/proteins associated with PI3K signaling.
as §5

[9] = system: c-Src; assay: Immunoblotting of c-Src phosphorylation in OPM2 and JJN3 cells; format: cell-based, human; details: OPM2 and JJN3, 24 hr
Method: as §3, §6, §5

[10] = system: JJN3 cells; assay: Immunoblotting of caspase-3 activation in JJN3 cells; format: cell-based, human; details: JJN3, 0-20 μM 24 hr or 10 μM 0-9 hr
Method: (§7) To answer whether C98 could induce apoptosis in other MM cells, 5 more MM cells were subject to the study. […] Cell apoptosis induced by C98 was further confirmed by the increased fraction of positive cells stained with Annexin V (Figure 5). To show whether activated PI3K signals can rescue C98 effects on MM cells, both OPM2 and RPMI-8226 cells were treated with IGF-1 alone or together with C98 for 48 hr followed by MTT assay.
Figure 4 C98 activates apoptotic signaling in MM cells (A) JJN3 cells were treated with C98 (0, 2.5, 5, 10, 20 μM) for 24 hr or 10 μM for 0, 3, 6, or 9 hr, followed by immunoblotting for the expression of p-AKT, t-AKT, pro-caspase-3 (Pro-Casp3), and cleaved caspase-3 (Cle-Casp3). (B) KMS11, LP1, OCI-My5, OPM2, JJN3, and RPMI-8226 were treated with C98 (20 μM) for 24 hr, followed by immunoblotting for the expression of PARP, Pro-Casp3, and Cle-Casp3. GAPDH was used as a loading control.
as §5

[11] = system: OPM2 and RPMI-8226 cells; assay: MTT assay with IGF-1 rescue; format: cell-based; details: OPM2 and RPMI-8226, IGF-1 alone or together with C98, 48 hr
Method: as §7
Cell viability was assessed with the MTT assay as reported previously. To show apoptosis, MM cells were incubated for 24 hr with increasing concentrations of C98 before being stained with Annexin V-FITC and propidium iodide (BioVision Milpitas, CA). Apoptotic cells were measured on a flow cytometer (FACSCalibur®, Becton Dickinson) as reported as previously. […]
www.impactjournals.com/oncotarget/ Oncotarget, Supplementary Materials 2014
Supplementary Figure S3: IGF-1 rescues C98-decreased MM cell proliferation. OPM2 and RPMI-8226 cells were treated with IGF-1 alone or increased C98 for 48 hr, followed by MTT assay. […]

Sequence of recombinant human PI3K isoform α (P42336 whole entry, canonical isoform): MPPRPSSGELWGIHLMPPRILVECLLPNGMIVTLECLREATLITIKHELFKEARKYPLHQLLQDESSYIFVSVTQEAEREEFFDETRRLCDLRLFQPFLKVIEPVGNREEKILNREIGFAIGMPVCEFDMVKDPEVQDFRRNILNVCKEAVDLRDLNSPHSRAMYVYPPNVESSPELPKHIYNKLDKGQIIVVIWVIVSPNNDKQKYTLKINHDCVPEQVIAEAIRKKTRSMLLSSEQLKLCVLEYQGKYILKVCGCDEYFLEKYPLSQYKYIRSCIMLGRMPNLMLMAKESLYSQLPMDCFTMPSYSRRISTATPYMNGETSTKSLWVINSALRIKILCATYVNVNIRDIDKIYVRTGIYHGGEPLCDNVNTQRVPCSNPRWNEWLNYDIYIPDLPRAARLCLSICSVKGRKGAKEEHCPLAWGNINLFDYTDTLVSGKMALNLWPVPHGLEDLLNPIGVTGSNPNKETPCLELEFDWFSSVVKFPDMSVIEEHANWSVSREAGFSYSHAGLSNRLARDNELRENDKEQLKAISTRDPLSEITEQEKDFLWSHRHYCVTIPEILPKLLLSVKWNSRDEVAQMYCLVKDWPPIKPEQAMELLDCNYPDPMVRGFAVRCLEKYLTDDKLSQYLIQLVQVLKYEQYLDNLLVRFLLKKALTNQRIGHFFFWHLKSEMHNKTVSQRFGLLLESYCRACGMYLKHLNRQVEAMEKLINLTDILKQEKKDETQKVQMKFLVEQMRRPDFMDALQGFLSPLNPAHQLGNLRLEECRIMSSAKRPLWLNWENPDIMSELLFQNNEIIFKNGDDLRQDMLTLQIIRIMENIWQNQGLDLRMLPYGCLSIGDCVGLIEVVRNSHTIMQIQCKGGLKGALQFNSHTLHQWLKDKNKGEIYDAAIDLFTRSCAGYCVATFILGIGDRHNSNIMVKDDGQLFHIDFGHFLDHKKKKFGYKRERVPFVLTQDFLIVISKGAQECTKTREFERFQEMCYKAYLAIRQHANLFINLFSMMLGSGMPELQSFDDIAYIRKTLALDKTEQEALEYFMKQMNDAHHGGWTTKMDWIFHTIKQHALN
Sequence of recombinant human PI3K isoform α (P27986 whole entry partner, canonical isoform): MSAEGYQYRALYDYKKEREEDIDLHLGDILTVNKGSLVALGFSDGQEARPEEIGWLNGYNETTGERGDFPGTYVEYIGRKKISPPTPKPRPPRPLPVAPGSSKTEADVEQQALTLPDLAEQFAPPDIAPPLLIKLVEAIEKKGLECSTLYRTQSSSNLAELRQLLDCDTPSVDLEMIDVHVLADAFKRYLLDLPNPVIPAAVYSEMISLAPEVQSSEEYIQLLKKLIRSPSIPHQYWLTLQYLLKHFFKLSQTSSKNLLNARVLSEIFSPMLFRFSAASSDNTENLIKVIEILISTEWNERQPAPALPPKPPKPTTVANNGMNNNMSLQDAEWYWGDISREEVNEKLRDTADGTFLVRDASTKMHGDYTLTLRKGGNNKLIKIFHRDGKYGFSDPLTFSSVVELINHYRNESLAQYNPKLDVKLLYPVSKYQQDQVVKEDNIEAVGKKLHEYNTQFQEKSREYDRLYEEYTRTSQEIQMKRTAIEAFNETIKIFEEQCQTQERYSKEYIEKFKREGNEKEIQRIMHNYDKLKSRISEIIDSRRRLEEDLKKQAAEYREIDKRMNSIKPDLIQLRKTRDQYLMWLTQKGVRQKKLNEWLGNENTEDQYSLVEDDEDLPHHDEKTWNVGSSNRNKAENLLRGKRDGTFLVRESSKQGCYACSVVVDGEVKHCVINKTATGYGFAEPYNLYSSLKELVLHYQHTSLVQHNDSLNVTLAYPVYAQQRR
Sequence of recombinant human PI3K isoform γ (P48736 whole entry, canonical isoform): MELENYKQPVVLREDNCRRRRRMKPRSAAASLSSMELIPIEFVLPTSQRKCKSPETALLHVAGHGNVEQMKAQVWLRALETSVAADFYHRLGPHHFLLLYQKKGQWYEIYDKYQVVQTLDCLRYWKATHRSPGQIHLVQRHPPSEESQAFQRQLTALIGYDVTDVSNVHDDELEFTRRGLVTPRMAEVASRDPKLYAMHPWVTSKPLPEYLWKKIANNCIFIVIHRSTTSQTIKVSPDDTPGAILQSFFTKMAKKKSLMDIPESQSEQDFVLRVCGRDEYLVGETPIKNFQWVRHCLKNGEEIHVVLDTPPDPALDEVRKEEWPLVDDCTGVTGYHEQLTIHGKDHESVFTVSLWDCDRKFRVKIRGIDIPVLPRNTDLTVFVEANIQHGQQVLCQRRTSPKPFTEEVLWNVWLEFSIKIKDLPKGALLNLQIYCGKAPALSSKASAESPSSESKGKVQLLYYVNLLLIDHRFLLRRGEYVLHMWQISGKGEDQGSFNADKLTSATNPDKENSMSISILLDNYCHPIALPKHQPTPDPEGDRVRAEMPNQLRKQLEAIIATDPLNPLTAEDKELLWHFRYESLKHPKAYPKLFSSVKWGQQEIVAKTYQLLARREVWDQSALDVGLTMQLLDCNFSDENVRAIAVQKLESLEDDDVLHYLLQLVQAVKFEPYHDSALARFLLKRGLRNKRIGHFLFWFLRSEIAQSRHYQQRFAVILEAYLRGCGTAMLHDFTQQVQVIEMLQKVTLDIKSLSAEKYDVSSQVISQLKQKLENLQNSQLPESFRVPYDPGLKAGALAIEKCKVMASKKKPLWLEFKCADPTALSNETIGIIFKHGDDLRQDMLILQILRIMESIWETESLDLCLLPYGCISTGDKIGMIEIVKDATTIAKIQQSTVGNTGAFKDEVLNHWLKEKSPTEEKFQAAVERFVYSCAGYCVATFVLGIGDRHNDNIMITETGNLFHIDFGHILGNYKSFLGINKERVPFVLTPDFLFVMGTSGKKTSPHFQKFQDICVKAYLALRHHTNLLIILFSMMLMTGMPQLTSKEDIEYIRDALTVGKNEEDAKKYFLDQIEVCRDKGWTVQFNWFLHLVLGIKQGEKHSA

**Q.** How did the IC50 [1] turn out when `N#C/C(=C\C=C\c1ccc(-c2cc(Cl)ccc2Cl)o1)C(N)=S` [C98] was run?
**A.** 590 nM

**Q.** What about the IC50 [2] of the same compound?
**A.** 740 nM

**Q.** And the “suppression of PDK1 activity” value [3]?
**A.** failed to suppress

**Q.** And the AKT phosphorylation [4]?
**A.** inhibited AKT phosphorylation in a time- and concentration-dependent manner

**Q.** And the AKT phosphorylation [5]?
**A.** suppressed AKT phosphorylation

**Q.** What about the “IGF-1R activation (phosphorylation)” value [6] of the same compound?
**A.** had no effects on IGF-1R activation

**Q.** And the PTEN protein level [7]?
**A.** had no effects on the PTEN protein level

**Q.** And the “phosphorylation level of ERK” value [8]?
**A.** failed to decrease

**Q.** And the “phosphorylation of c-Src” value [9]?
**A.** failed to inhibit

**Q.** What about the caspase-3 activation [10] of the same compound?
**A.** activated caspase-3 in a time- and concentration-dependent manner

**Q.** And the “MM cell proliferation (MTT), rescue by IGF-1” value [11]?
**A.** IGF-1 could partly abolish C98-decreased MM cell proliferation
